Results reported in patent US11479563B2, “Biphenyl compound or salt thereof” (TAIHO PHARMACEUTICAL CO., LTD., priority 2017, dated 2022).
Counter-ions that a name gives are not always drawn. Like-named read-outs stand apart in the source and are kept apart here.

Key:
[1] = system: NCI-H146 cells (human small-cell lung cancer cell lines); assay: Cell-growth inhibition test: NCI-H146 cells; type: cell-based; conditions: read-out: Cell-Growth Inhibition Test: NCI-H146 Cells IC50
Summary of the method: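 NCI-H146 small-cell lung cancer cells were cultured with compound or DMSO for 10 days at 37°C, 5% CO2. Viability read by CellTiter-Glo luminescence; growth rate (%) = treated/DMSO luminescence × 100.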

[2] = system: HEL cells (human acute myelocytic leukemia cell lines); conditions: read-out: Cell-Growth Inhibition Test: HEL Cells IC50;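 also: viable cell count by CellTiter-Glo 2.0 luminescence after 5 days of culture at 37 °C, growth expressed relative to DMSO-only wells as 100%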
[3] = system: NCI-H1417 cells (human small-cell lung cancer cell lines); conditions: read-out: Cell-Growth Inhibition Test: NCI-H1417 Cells IC50;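 also: growth of NCI-H1417 cells over 10 days at 37 °C, read as viable-cell luminescence by CellTiter-Glo 2.0, expressed as % of DMSO-only control wells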
Description: (§1) Under the following conditions, an in vitro cell-growth inhibition test was performed with respect to HEL cells (human acute myelocytic leukemia cell lines), NCI-H1417 cells (human small-cell lung cancer cell lines), and NCI-H146 cells (human small-cell lung cancer cell lines).
(§2) The cells with the compound of the present invention or with dimethylsulfoxide alone were cultured at 37° C. in a 5% carbon-dioxide-containing incubator for 5 days (HEL cells) or 10 days (NCI-H1417 cells and NCI-H146 cells). After culture, the plate was allowed to stand at room temperature for 30 minutes, and 100 μL of the supernatant was removed from each well to leave 100 μL of the cell culture solution. To each well containing the remaining 100 μL of the cell culture solution, the same amount of CellTiter-Glo 2.0 Assay (Promega, Cat #: G9242) was added. The microplate was shaken with a plate mixer for 1 minute and then allowed to stand in a dark place for 10 minutes. Thereafter, the luminescence intensity of viable cells in each well was measured using a microplate reader (PerkinElmer, EnSpire). […] Cell growth rate (%)=T/C×100 T: The luminescence intensity in a well to which the compound of the present invention was added (count per second) C: The luminescence intensity in a well to which dimethylsulfoxide alone was added (count per second)

[4] = biological target: T1, human LSD1 protein (Homo sapiens, UniProt O60341); assay: Measurement of LSD1 inhibitory activity (in vitro); type: biochemical
T1 construct: purchased Abcam ab80379
Description: To measure the inhibitory activity, first, the compound of the present invention was serially diluted in dimethylsulfoxide (DMSO). Sequentially, the solution of the compound of the present invention in DMSO (final concentration of DMSO: 5%) and human LSD1 protein (Abcam, ab80379) were added to a reaction buffer (25 mM Tris-HCl (pH 7.5), 50 mM KCl, 2 mM CHAPS, 1 mM DTT, 0.02% BSA). The mixture was preincubated at 25° C. for 30 minutes. […] Tranylcypromine (final concentration: 3 mM) was then added thereto to terminate the reaction.

[5] = system: HEL cells (human acute myelocytic leukemia cell lines); assay: cells; conditions: read-out: Cell-Growth Inhibition Test: HEL Cells IC50 (nM);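 also: viable cell count by CellTiter-Glo 2.0 luminescence after 5 days of culture at 37 °C, growth expressed relative to DMSO-only wells as 100%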
[6] = system: NCI-H1417 cells (human small-cell lung cancer cell lines); assay: cells; conditions: NCI-H1417, read-out: Cell-Growth Inhibition Test: NCI-H1417 Cells IC50 (nM);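 also: growth of NCI-H1417 cells over 10 days at 37 °C, read as viable-cell luminescence by CellTiter-Glo 2.0, expressed as % of DMSO-only control wells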
Description: as §1, §2

Row | Compound | IC50 ([1]; NCI-H146 cells) [nM] | IC50 [2] [nM] | IC50 [3] [nM] | IC50 [4] [nM] | IC50 ([1]; Homo sapiens, NCI-H146) [nM] | IC50 [5] [nM] | IC50 [6] [nM] | IC50 ([4]; human LSD1 protein, H3K4 (Me1)-biotin-labeled peptide 200 nM, preincubated 30 minutes, read-out: LSD1 inhibitory activity IC50) [nM]
1 | 2′-(6,7-difluoro-1-(2-hydroxy-2-methylpropyl)-1H-indol-5-yl)-3-fluoro-5′-(2,7-diazaspiro[3.4]octane-6-carbonyl)-[1,1′-biphenyl]-4-carbonitrile [Example 200] | 2.31 | 3.72 | 1.23 | – | – | – | – | –
2 | 3-fluoro-2′-(6-fluoro-1-(2-hydroxy-2-methylpropyl)-1H-indazol-5-yl)-5′-(2,7-diazaspiro[3.4]octane-6-carbonyl)-[1,1′-biphenyl]-4-carbonitrile [Example 199] | 5.45 | 22 | 4.55 | – | – | – | – | –
3 | Cc1c(F)c(-c2ccc(C(=O)N3[C@@H]4CC[C@H]3[C@@H](N)C4)cc2-c2ccc(C#N)c(F)c2)cc2nnn(CC3(O)CCC3)c12 (single isomer, unassigned) [Example 270] | 0.37 | 0.26 | 0.18 | – | – | – | – | –
4 | Cc1ccc(-c2ccc(CN3[C@H]4CC[C@@H]3[C@H](N)C4)cc2-c2ccc([N+](=O)[O-])cc2)cc1 (single isomer, unassigned) [Example 296, dihydrochloride] | – | 5.83 | 37.6 | – | – | – | – | –
5 | Cc1noc2cc(-c3ccc(C(=O)N4[C@@H]5CC[C@H]4C[C@@H](N)C5)cc3-c3ccc(C#N)c(F)c3)c(F)cc12 [Example 179, 5′-((3-endo)-3-amino-8-azabicyclo[3.2.1]octane-8-carbonyl)-3-fluoro-2′-(5-fluoro-3-methylbenzo[d]isoxazol-6-yl)-[1,1′-biphenyl]-4-carbonitrile] | 1.05 | 1.52 | 3.36 | – | – | – | – | –
6 | CC(C)(O)Cn1ncc2cc(-c3ccc(CN4[C@@H]5CC[C@H]4C[C@@H](N)C5)cc3-c3ccc(C#N)c(F)c3)c(F)cc21 [Example 299, 5′-((3-endo)-amino-8-azabicyclo[3.2.1]octan-8-yl)methyl)-3-fluoro-2′-(6-fluoro-1-(2-hydroxy-2-methylpropyl)-1H-indazol-5-yl)-[1,1′-biphenyl]-4-carbonitrile dihydrochloride] | – | – | – | 0.2 | < 1.37 | 0.43 | 0.949 | –
7 | CC(C)(O)Cn1ncc2cc(-c3ccc(CN4CCC5(CNC5)C4)cc3-c3ccc(C#N)c(F)c3)c(F)cc21 [Example 300, 5′-((2,6-diazaspiro[3.4]octan-6-yl)methyl)-3-fluoro-2′-(6-fluoro-1-(2-hydroxy-2-methylpropyl)-1H-indazol-5-yl)-[1,1′-biphenyl]-4-carbonitrile dihydrochloride] | – | – | – | – | 0.7 | 0.6 | 1.53 | 0.23
